Measured values from US8361740B2, “Peptide standards” (King's College London, priority 2007, dated 2013).
Non-standard residues stand in square brackets, D forms with d. No end group written: not given here. K∗ = stable isotope labelled lysine

System: trypsin
Test: Tryptic digestion of peptide standards, released T6 peptide (LVNEVTEFAK) measured by LC-MSMS (MRM)
Assay type: biochemical
Settings: for IS Peak Area (counts): LVNEVTEFAK* signal, internal std + digested peptide 8; for Analyte Peak Area (counts): trypsin 37° C. 30 min
Text: The first experiment was test the hypothesis that the LVNEVTEFAKT (SEQ ID NO:7) peptide is cleaved to LVNEVTEFAK (SEQ ID NO:10) by trypsin as efficiently as the longer peptides. Using LVNEVTEFAK* (SEQ ID NO:10) as the internal standard peptides (1-5, and 8) were digested using standard protocol. […] This implies that any internal standard peptide where cysteine is the N-terminal amino acid will require the next amino acid in addition to be effective.
Experiment to Determine Number of Amino Acids Required Following Trypsin Digest Site for Digestion.
Assay 50 μl peptide 1-6 & 8 (blank was deionised water)+50 μl internal std Add 10 μl acetonitrile & 10 μl 1% formic acid, vortex mix, and stand for 5 min Add 6 μl […] ammonium bicarbonate & 5 μl trypsin (5 mg/l), vortex mix, and pulse centrifuge (6 sec) Incubate at 37° C. for 30 min & add 500 μl HPLC solvent (acetonitrile:water 1:1 with 0.025% formic acid) Vortex mix and transfer to 96-deep well polypropylene plate Sample volume, 5 μl; flow rate, 500 μl/min Chromatography—teicoplanin guard column MSMS parameters—generic peptide ionisation and doubly charged ion fragmentation T6 doubly charged ion m/z 575.4 and internal std m/z 579.4 Product ions (m/z): 937.4, 823.4, 694.4—internal std (m/z): 945.4, 831.4, 702.4 (150 ms/MRM) Results

With “LVNEVTEFAK*T (LVNEVTEFA[K∗]T) [peptide 8]” the “signal for LVNEVTEFAK after tryptic digestion” value (3 different MRMs, LVNEVTEFAK* as internal standard) was “no signal”, the “LVNEVTEFAK* signal after tryptic digestion” value (LVNEVTEFAK* as internal standard) was “increased by the expected amount” and the “Internal standard area Ratio (IS + peptide 8 / Mean (Blank, 1-6))” value (T6 694) was 1.87. The “IS Peak Area (counts)” value (T6 694 transition) was 238000 counts, the “Internal standard area Ratio (IS + peptide 8 / Mean (Blank, 1-6))” value (T6 823) was 1.80 and the “IS Peak Area (counts)” value (T6 823 transition) was 83000 counts. The “Internal standard area Ratio (IS + peptide 8 / Mean (Blank, 1-6))” value (T6 937) was 1.91, the “IS Peak Area (counts)” value (T6 937 transition) was 253000 counts and the “Analyte Peak Area (counts)” value (analyte T6 694 (m/z 575.4/694.4)) was 149 counts. The “Area Ratio” value (analyte T6 694 / internal std LVNEVTEFAK*) was 0.00062, the “Analyte Peak Area (counts)” value (analyte T6 823 (m/z 575.4/823.4)) was 62 counts and the “Area Ratio” value (analyte T6 823 / internal std LVNEVTEFAK*) was 0.00074. The “Analyte Peak Area (counts)” value (analyte T6 937 (m/z 575.4/937.4)) was 147 counts, the “Area Ratio” value (analyte T6 937 / internal std LVNEVTEFAK*) was 0.00058 and the “recovery after tryptic digestion” value (within the limits of the experiment) was “full recovery”.
